Measurements as given in US6211156A (priority 1999, dated 2001).

Tested on: male rats
Settings: rat, in vivo

Row | Compound | effect on penile erections induced by 2 μg of the test peptides into the PVN | effect on test peptide induced penile erection | other results
1 | COC(=O)[C@@H](N)CCCNC(=N)N[N+](=O)[O-] [L-NAME, N^G -nitro-1-arginine methyl ester] | reduced in a dose dependent manner |  | 
2 | C[C@]12N[C@H](Cc3ccccc31)c1ccccc12 [MK 801, dizolcipine] |  | did not modify the penile erection | 
3 | OCCN1CCN(CC/C=C2/c3ccccc3Sc3ccc(C(F)(F)F)cc32)CC1 [cis-flupenthixol] |  | did not modify the penile erection | 
4 | CN1CC[C@]23c4c5ccc(O)c4O[C@H]2[C@@H](O)C=C[C@H]3[C@H]1C5 [morphine] | reduced in a dose-dependent manner |  | 
5 | ω-conotoxin-GVIA |  |  | effect on penile erection induced by 2 μg of the test peptides into the PVN: reduced penile erection
